Experimental data as given in publication PMC7096398, “Oxytocin Receptors Regulate Social Preference in Zebrafish” (Scientific Reports, 2020).
Several values for one entry are separate records, joined by “and”; a condition that tells them apart may be missing. Equal entries are not always repeated. Where two headings read alike, the source gives them in different places. Positions of bridges follow the written chain, without caps; N, C: chain ends. Residues, ends and D or L forms follow the SMILES beside them.

Columns and labels:
zebrafish = system: zebrafish; design: method as in 4 sources, ref 42 = [42]; PMID 21956239; doi:10.1007/s00213-011-2482-2; 42. Braida D Neurohypophyseal hormones manipulation modulate social and anxiety-related behavior in zebrafish Psychopharmacology (Berl) 2012 220 319 330 10.1007/s00213-011-2482-2 21956239 ||| ref 44 = [44]; PMID 27247142; doi:10.1016/j.bbr.2016.05.059; 44. Zimmermann FF Gaspary KV Siebel AM Bonan CD Oxytocin reversed MK-801-induced social interaction and aggression deficits in zebrafish Behav Brain Res 2016 311 368 374 10.1016/j.bbr.2016.05.059 2724 ||| ref 51 = [51]; doi:10.1163/1568539x-00003261; 51. Lindeyer CM Langen EMA Swaney WT Reader SM Nonapeptide influences on social behaviour: effects of vasotocin and isotocin on shoaling and interaction in zebrafish Behaviour 2015 152 897 915 10.1163 ||| ref 27 = [27]; PMID 26347614; doi:10.3389/fncir.2015.00039; 27. Dreosti E Lopes G Kampff AR Wilson SW Development of social behavior in young zebrafish Front Neural Circuits 2015 9 39 10.3389/fncir.2015.00039 26347614 PMC4539524; settings: cited from earlier work
Text: Thus far, dopamine[56] and serotonin[57] in the mesolimbic system and excitation-inhibition balance[58] seem to play a prominent role in social investigation in rodents. Similarly, levels of dopamine and serotonin are modulated in socially interacting fish[59]–[61] and social preference behaviour decreases after treatment with a dopamine D1 receptor antagonist. […] In rodents, release of ... || (+ 1 further places)

Avpr1ab = molecular target: T1, Avpr1ab (Danio rerio, UniProt A0A8M1P6E3); test: Inositol phosphate accumulation assay, agonist potency at Avpr1ab; type: cell-based, zebrafish
T1 sequence (A0A8M1P6E3 1-410): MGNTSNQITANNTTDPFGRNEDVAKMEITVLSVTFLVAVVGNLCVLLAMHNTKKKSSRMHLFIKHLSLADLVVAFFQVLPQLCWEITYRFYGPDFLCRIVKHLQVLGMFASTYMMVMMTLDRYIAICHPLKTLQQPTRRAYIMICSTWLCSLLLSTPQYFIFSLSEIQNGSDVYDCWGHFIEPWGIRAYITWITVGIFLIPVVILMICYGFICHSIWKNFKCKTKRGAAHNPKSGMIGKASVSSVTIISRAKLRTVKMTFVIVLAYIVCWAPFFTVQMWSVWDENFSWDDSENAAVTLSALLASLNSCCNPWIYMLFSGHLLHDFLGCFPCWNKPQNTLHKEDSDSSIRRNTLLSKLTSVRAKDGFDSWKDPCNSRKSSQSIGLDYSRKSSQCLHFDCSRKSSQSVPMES
Description: (§1) The receptor constructs were ordered from GeneScript and subcloned into a pcDNA3.1/CT-GFP-TOPO vector. The coding sequences of the GenBank entries NM_001199370.1 (oxtr), NM_001199369.1 (oxtrl), NM_001301114.1 (avpr1aa), and NM_001297676.1 (avpr1ab) were used for synthesis. The stop codons were removed, and an additional […] was added to facilitate hybrid protein expression with GFP in frame from the vector. The GCCACC Kozak sequence was inserted before the start codons. After transformation of the plasmid constructs into TOP10 competent cells (Thermo Fisher Scientific), the Maxiprep (Thermo Fisher Scientific) method was used to amplify the plasmids for transfection.
(§2) The Inositol phosphate accumulation assay was performed according to previous descriptions to measure the potency of different ligands for zebrafish different oxytocin related receptors. Each receptor construct was transfected into HEK293 cells using Lipofectamine 2000 (Thermo Fisher Scientific). Myo2-^3H-inositol (PerkinElmer) at 3 μCi/mL was added the day after transfection. On day three, cells were re-suspended in assay buffer (10 mM LiCl, 20 mM HEPES, 137 mM NaCl, 5 mM KCl, 0.44 mM KH2PO4, 4.2 mM NaHCO3, 1.2 mM MgCl2, 1 mM CaCl2, and 10 mM glucose), after incubation in a PBS/EDTA mixture (0.2 g/L). After 10 minutes of pre-incubation at 37 °C, the cells were stimulated with serial dilution of peptides for 25 minutes at 37 °C. […] Cells were lysed for 60 minutes at 4 °C with an equal volume of 0.8 M perchloric acid, and then neutralised with KOH/KHCO3 solution. Ion exchange chromatography on AG 1-X8 resin (Bio-Rad) was used to collect the generated ^3H-inositol phosphates. The resin was washed with buffer containing 5 mM Na2B4O7 and 60 mM NH4-formate and eluted with buffer containing 1 M NH4-formate and 0.1 M formic acid. Samples were mixed with OptiPhase HiSafe (PerkinElmer Waltham, MA, USA) and ^3H radioactivity was measured with a Tri-Carb 2910TR liquid scintillation counter (PerkinElmer Waltham, MA, USA). The assays were performed in duplicate for each concentration and repeated at least 3 times.

Oxtrl = molecular target: T2, Oxtrl (Danio rerio, UniProt E4W698); test: Inositol phosphate accumulation assay, agonist potency at Oxtrl; type: cell-based, zebrafish
T2 construct: host or cells: HEK293
T2 sequence (E4W698 1-382): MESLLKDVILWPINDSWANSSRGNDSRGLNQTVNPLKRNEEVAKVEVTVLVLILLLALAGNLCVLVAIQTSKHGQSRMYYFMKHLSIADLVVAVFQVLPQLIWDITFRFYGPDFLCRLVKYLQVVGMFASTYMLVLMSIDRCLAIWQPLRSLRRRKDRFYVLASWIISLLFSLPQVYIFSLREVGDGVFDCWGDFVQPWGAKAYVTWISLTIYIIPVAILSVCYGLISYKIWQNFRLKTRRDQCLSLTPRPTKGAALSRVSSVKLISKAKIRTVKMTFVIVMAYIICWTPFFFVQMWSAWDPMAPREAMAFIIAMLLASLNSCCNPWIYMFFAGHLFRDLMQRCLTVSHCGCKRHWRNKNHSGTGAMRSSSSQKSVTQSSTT
Description: as §1, §2

Oxtr = molecular target: T3, Oxtr (Danio rerio, UniProt E4W699); test: Inositol phosphate accumulation assay, agonist potency at Oxtr; type: cell-based, zebrafish
T3 construct: host or cells: HEK293
T3 sequence (E4W699 1-388): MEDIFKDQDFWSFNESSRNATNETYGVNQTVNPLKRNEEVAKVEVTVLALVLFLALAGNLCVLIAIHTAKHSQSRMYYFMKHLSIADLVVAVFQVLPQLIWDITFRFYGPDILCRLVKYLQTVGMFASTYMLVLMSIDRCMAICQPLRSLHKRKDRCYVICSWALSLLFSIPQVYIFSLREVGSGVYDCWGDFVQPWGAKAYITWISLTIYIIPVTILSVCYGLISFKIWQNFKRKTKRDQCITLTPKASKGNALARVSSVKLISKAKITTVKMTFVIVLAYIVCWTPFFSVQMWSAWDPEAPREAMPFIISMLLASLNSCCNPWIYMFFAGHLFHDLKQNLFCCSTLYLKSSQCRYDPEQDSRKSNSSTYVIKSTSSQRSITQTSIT
Description: as §1, §2

Avpr1aa = molecular target: T4, Avpr1aa (Danio rerio, UniProt A0A8M1P1H3); test: Inositol phosphate accumulation assay, agonist potency at Avpr1aa; type: cell-based, zebrafish
T4 sequence (A0A8M1P1H3 1-379): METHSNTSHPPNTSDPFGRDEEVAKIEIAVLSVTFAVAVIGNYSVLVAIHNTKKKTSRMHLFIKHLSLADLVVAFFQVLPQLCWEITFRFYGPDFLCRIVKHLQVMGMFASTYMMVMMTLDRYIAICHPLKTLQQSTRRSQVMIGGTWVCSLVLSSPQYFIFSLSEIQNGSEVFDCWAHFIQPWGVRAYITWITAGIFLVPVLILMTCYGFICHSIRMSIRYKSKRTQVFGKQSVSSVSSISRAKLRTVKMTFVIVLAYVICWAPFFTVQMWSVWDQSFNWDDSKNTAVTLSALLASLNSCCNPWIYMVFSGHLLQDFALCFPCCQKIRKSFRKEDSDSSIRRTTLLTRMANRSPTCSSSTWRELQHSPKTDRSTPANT
Description: as §1, §2

[1] = HEK293 cells transfected with zebrafish Avpr1ab, 3H-inositol phosphate accumulation, 10 min pre-incubation, 25 min stimulation, 37 °C, duplicates, table: mean ± SEM, n = 3, read-out: Potency (EC50) at Avpr1ab
[2] = read-out: Potency (EC50) at Oxtrl
[3] = HEK293 cells transfected with zebrafish Avpr1aa, 3H-inositol phosphate accumulation, 10 min pre-incubation, 25 min stimulation, 37 °C, duplicates, table: mean ± SEM, n = 3 (zOT n = 4), read-out: Potency (EC50) at Avpr1aa

| Molecule | EC50 (Avpr1ab; [1]) | EC50 (Oxtrl; [2]) | EC50 (Oxtr) | EC50 (Avpr1aa; [3]) | other results |
| --- | --- | --- | --- | --- | --- |
| C[C@]12N[C@H](Cc3ccccc31)c1ccccc12 [MK-801] |  |  |  |  | Social preference deficits (zebrafish; zebrafish): deficits in social preference induced |
| CC[C@H](C)[C@@H]1NC(=O)[C@H](Cc2ccc(O)cc2)NC(=O)[C@@H](N)CSSC[C@@H](C(=O)N2CCC[C@H]2C(=O)N[C@@H](CC(C)C)C(=O)NCC(N)=O)NC(=O)[C@H](CC(N)=O)NC(=O)[C@H](CCC(N)=O)NC1=O [OT] | 20 to 50 nM and 42.1 nM | 20 to 50 nM and 34.8 nM | 20 to 50 nM and 47.9 nM | 20 to 50 nM and 21.5 nM |  |
| CCO [ethanol] |  |  |  |  | Social preference, developing zebrafish (zebrafish; high concentrations): inhibit social preference |
| CC[C@H](C)[C@@H]1NC(=O)[C@H](Cc2ccc(O)cc2)NC(=O)[C@@H](N)CSSC[C@@H](C(=O)N2CCC[C@H]2C(=O)N[C@H](C(=O)NCC(N)=O)[C@@H](C)CC)NC(=O)[C@H](CC(N)=O)NC(=O)[C@H](CO)NC1=O [zOT] (H-CYISNCPIG-NH2; disulfide 1-6) | 3.52 ± 0.94 nM | 3.14 ± 1.1 nM |  | 317 ± 79 nM | EC50 (Oxtr; HEK293 cells transfected with zebrafish Oxtr, 3H-inositol phosphate accumulation, 10 min pre-incubation, 25 min stimulation, 37 °C, duplicates, table: mean ± SEM, n = 3, read-out: Potency (EC50) at Oxtr): 2.99 ± 0.93 nM |
| CC[C@H](C)[C@@H]1NC(=O)[C@H](Cc2ccc(O)cc2)NC(=O)[C@@H](N)CSSC[C@@H](C(=O)N2CCC[C@H]2C(=O)N[C@@H](CCCNC(=N)N)C(=O)NCC(N)=O)NC(=O)[C@H](CC(N)=O)NC(=O)[C@H](CCC(N)=O)NC1=O [zVP] (H-CYIQNCPRG-NH2; disulfide 1-6) |  |  | 11 ± 3 nM |  | EC50 (Avpr1ab): 2.79 ± 1.4 nM; EC50 (Oxtrl): 27 ± 9.5 nM; EC50 (Avpr1aa): > 317 nM and 727 nM |
| carbetocin |  |  |  |  | Social deficits following MK-801 exposure (zebrafish; zebrafish exposed to glutamate antagonist MK-801): rescued social deficits |
